From US7767716B2, “Acyl hydrazines as kinase inhibitors, in particular for SGK” (Merck Patent GmbH, priority 2005, dated 2010) come the findings set out here.

Values joined by “and” are separate entries in the source; they are usually repeats but may differ in a detail not shown here. Identical values can stand only once.

Molecule `O=C(Cc1cccc(O)c1)NNC(=O)c1cc([N+](=O)[O-])cc([N+](=O)[O-])c1` came in with a melting point of 248 to 249 °C.
Then `O=C(Cc1cccc(O)c1)NNC(=O)c1ccc(O)cc1O` [compound 1], with 233 to 235 °C; and `O=C(Cc1cccc(O)c1)NNC(=O)c1ccc(OCc2ccccc2)cc1` [compound 2], with 199 to 200 °C; and `O=C(Cc1cccc(O)c1)NNC(=O)c1ccc(O)cc1` [compound 3], with 207 to 208 °C.
Then `O=C(Cc1cccc(O)c1)NNC(=O)c1cccc(OCc2ccccc2)c1` [compound 4], with 152 to 153 °C; and `O=C(Cc1cccc(O)c1)NNC(=O)c1ccccc1O` [compound 5], with 214 to 215 °C; and `O=C(Cc1cccc(O)c1)NNC(=O)c1cccc(O)c1` [compound 6], with 224 to 225 °C.
Under `O=C(Cc1cccc(O)c1)NNC(=O)c1ccc(OCc2ccccc2)cc1Cl` [compound 7] stands 162 to 164 °C; under `O=C(Cc1cccc(O)c1)NNC(=O)c1ccc(O)cc1Cl` [compound 8], 165 to 166 °C.
The molecule `COc1cc(Cl)c(C(=O)NNC(=O)Cc2cccc(O)c2)cc1OC` [compound 9] had a melting point of 174 to 175 °C.
Under `COc1cc(I)c(C(=O)NNC(=O)Cc2cccc(O)c2)cc1OC` [compound 10] stands 199 to 200 °C.
Then `COc1cc(C(=O)NNC(=O)Cc2cccc(O)c2)c([N+](=O)[O-])cc1OC` [compound 11], with 226 to 227 °C; and `COc1cc(F)c(C(=O)NNC(=O)Cc2cccc(O)c2)c(F)c1` [compound 12], with 198 to 199 °C.
In the case of `COc1ccc(C(=O)NNC(=O)Cc2cccc(O)c2)c(C)c1` [compound 13], the melting point was in the range of 171 to 172 °C.
Under `COc1cc(OCc2ccccc2)ccc1C(=O)NNC(=O)Cc1cccc(O)c1` [compound 14] stands 193 to 194 °C; under `O=C(Cc1cccc(O)c1)NNC(=O)c1cc(Cl)ccc1Br` [compound 15], 212 to 213 °C; under `O=C(Cc1cccc(O)c1)NNC(=O)c1ccc(OC(F)(F)F)cc1` [compound 16], 189 to 190 °C.
In the case of `COc1ccccc1C(=O)NNC(=O)Cc1cccc(O)c1` [compound 17], the melting point lay in the range of 181 to 182 °C.
Under `Cc1cccc(C(=O)NNC(=O)Cc2cccc(O)c2)c1` [compound 18] stands 156 to 157 °C.
Under `COC(=O)c1ccc(C(=O)NNC(=O)Cc2cccc(O)c2)cc1` [compound 19] stands 201 to 202 °C; under `O=C(Cc1cccc(O)c1)NNC(=O)c1cccc([N+](=O)[O-])c1` [compound 20], 179 °C; under `O=C(Cc1cccc(O)c1)NNC(=O)c1ccccc1F` [compound 21], 154 to 155 °C.
Then `Cc1ccc(C(=O)NNC(=O)Cc2cccc(O)c2)cc1` [compound 22], with 175 to 176 °C.
The molecule `O=C(Cc1cccc(O)c1)NNC(=O)c1ccccc1Cl` [compound 23] gave a melting point of 172 °C.
In turn, `O=C(Cc1cccc(O)c1)NNC(=O)c1cccc(Cl)c1` [compound 24] returned a melting point of 183 to 184 °C.
With `O=C(Cc1cccc(O)c1)NNC(=O)c1ccc(Cl)cc1Cl` [compound 25], the melting point was 202 to 203 °C.
Then `O=C(Cc1cccc(O)c1)NNC(=O)c1ccccc1I` [compound 27], with 190 to 191 °C; and `O=C(Cc1cccc(O)c1)NNC(=O)c1ccc(Br)cc1` [compound 28], with 229 °C; and `COc1ccc(C(=O)NNC(=O)Cc2cccc(O)c2)c(OC)c1` [compound 29], with 197 to 198 °C.
In turn, `Cc1ccccc1C(=O)NNC(=O)Cc1cccc(O)c1` [compound 30] registered a melting point of 197 to 198 °C.
Under `O=C(Cc1cccc(O)c1)NNC(=O)c1ccc(F)cc1` [compound 31] stands 182 to 183 °C; under `O=C(Cc1cccc(O)c1)NNC(=O)c1ccc2ccccc2c1` [compound 32], 201 to 202 °C; under `O=C(Cc1cccc(O)c1)NNC(=O)c1cccc(Br)c1` [compound 33], 194 to 195 °C.
Under `O=C(Cc1cccc(O)c1)NNC(=O)c1cccc2ccccc12` [compound 34] stands 210 to 211 °C.
Under `COc1cc(O)ccc1C(=O)NNC(=O)Cc1cccc(O)c1` [compound 35] stands 208 to 209 °C; under `COc1ccc(C(=O)NNC(=O)Cc2cccc(O)c2)cc1` [compound 36], 158 to 159 °C.
Regarding `O=C(Cc1cccc(O)c1)NNC(=O)c1cccc(F)c1` [compound 37], the melting point fell in the range of 176 to 177 °C.
For `O=C(Cc1cccc(O)c1)NNC(=O)c1c(F)cccc1F` [compound 38], the melting point lay within 191 to 192 °C.
Under `N#Cc1cccc(C(=O)NNC(=O)Cc2cccc(O)c2)c1` [compound 39] stands 181.5 to 182.5 °C; under `O=C(Cc1cccc(O)c1)NNC(=O)c1cccc(Cl)c1Cl` [compound 40], 220 to 221 °C.
Under `O=C(Cc1cccc(O)c1)NNC(=O)c1ccc(F)c(F)c1` [compound 41] stands 164 °C.
Regarding `CCOc1cccc(C(=O)NNC(=O)Cc2cccc(O)c2)c1` [compound 42], the melting point was 130 to 132 °C.
Molecule `CC(C)(C)c1ccc(C(=O)NNC(=O)Cc2cccc(O)c2)cc1` [compound 43] gave a melting point of 183 to 184 °C.
Under `CCc1ccc(C(=O)NNC(=O)Cc2cccc(O)c2)cc1` [compound 44] stands 155 to 156 °C; under `CCOc1ccc2ccccc2c1C(=O)NNC(=O)Cc1cccc(O)c1` [compound 45], 148 to 150 °C.
`O=C(Cc1cccc(O)c1)NNC(=O)c1ccc(SC(F)(F)F)cc1` [compound 46] came in with a melting point of 165 to 166 °C.
The molecule `O=C(Cc1cccc(O)c1)NNC(=O)c1ccccc1C(F)(F)F` [compound 47] registered a melting point of 195 to 196 °C.
Then `O=C(Cc1cccc(O)c1)NNC(=O)c1cccc(OC(F)(F)F)c1` [compound 48], with 256 to 257 °C; and `O=C(Cc1cccc(O)c1)NNC(=O)c1ccccc1[N+](=O)[O-]` [compound 49], with 206 to 207 °C.
Then `O=C(Cc1cccc(O)c1)NNC(=O)c1ccc(Cl)cc1` [compound 50], with 223 °C.
Under `O=C(Cc1cccc(O)c1)NNC(=O)c1ccccc1` [compound 51] stands 162 to 163 °C; under `O=C(Cc1cccc(O)c1)NNC(=O)c1cccc(C(Cl)Cl)c1` [compound 52], 154 to 155 °C.
The molecule `O=C(Cc1cccc(O)c1)NNC(=O)c1cccc(C(F)(F)F)c1` [compound 53] came in with a melting point of 161 to 162 °C.
Under `O=C(Cc1cccc(O)c1)NNC(=O)c1ccc(CCl)cc1` [compound 54] stands 175 to 176 °C; under `COc1cccc(C(=O)NNC(=O)Cc2cccc(O)c2)c1` [compound 55], 138 to 139 °C; under `O=C(Cc1cccc(O)c1)NNC(=O)c1ccc([N+](=O)[O-])cc1` [compound 56], 222 to 223 °C.
Molecule `Cc1cc(O)cc(O)c1C(=O)NNC(=O)Cc1cccc(O)c1` [compound 57] had a melting point of 226 to 227 °C.
Under `Cc1cc(OCc2ccccc2)cc(OCc2ccccc2)c1C(=O)NNC(=O)Cc1cccc(O)c1` [compound 58] stands 165 to 166 °C; under `CCc1cc(OCc2ccccc2)ccc1C(=O)NNC(=O)Cc1cccc(O)c1` [compound 59, N′-[2-(3-hydroxyphenyl)acetyl]-4-benzyloxy-2-ethylbenzohydrazide], 190 to 191 °C.
In turn, `CCc1cc(O)ccc1C(=O)NNC(=O)Cc1cccc(O)c1` [compound 60, N′-[2-(3-hydroxyphenyl)acetyl]-2-ethyl-4-hydroxybenzohydrazide] returned a melting point of 199 to 200 °C.
Then `Cc1cc(O)c(C)c(O)c1C(=O)NNC(=O)Cc1cccc(O)c1` [compound 61], with 193 to 194 °C; and `CCc1cc(O)cc(O)c1C(=O)NNC(=O)Cc1cccc(O)c1` [compound 62], with 251 °C.
Then `O=C(Cc1cccc(O)c1)NNC(=O)c1c(O)cc(O)cc1Br` [compound 63], with 226 to 227 °C.
Under `O=C(Cc1cccc(O)c1)NNC(=O)c1c(Br)cc(OCc2ccccc2)cc1OCc1ccccc1` [compound 64] stands 194 to 195 °C.
Molecule `COc1ccc(CC(=O)NNC(=O)c2c(C)cc(O)cc2O)cc1O` [compound 66] gave a melting point of 232 to 233 °C.
`O=C(Cc1cccc(O)c1)NNC(=O)c1c(O)cc(O)cc1O` [compound 68, N′-[2-(3-hydroxyphenyl)acetyl]-2,4,6-trihydroxybenzohydrazide]: the melting point was 237 to 238 °C.
Under `CCCc1cc(O)cc(O)c1C(=O)NNC(=O)Cc1cccc(O)c1` [compound 69] stands 198 to 200 °C; under `O=C(Cc1cccc(O)c1)NNC(=O)c1c(O)cc(O)cc1Cl` [compound 70, N′-[2-(3-hydroxyphenyl)acetyl]-2-chloro-4,6-dihydroxybenzohydrazide], 217 °C and 213 to 215 °C.
Under `O=C(Cc1cccc(O)c1)NNC(=O)c1ccc(O)cc1C(F)(F)F` [compound 71] stands 210 to 212 °C; under `O=C(Cc1cccc(O)c1)NNC(=O)c1c(O)cc(O)cc1F` [compound 72], 230 to 232 °C; under `O=C(Cc1cccc(O)c1)NNC(=O)c1c(O)cc(O)cc1Br` [compound 73], 259 °C.
Then `O=C(Cc1cccc(O)c1)NNC(=O)c1ccc(O)c([N+](=O)[O-])c1` [compound 74, N′-[2-(3-hydroxyphenyl)acetyl]-4-hydroxy-3-nitrobenzohydrazide], with 190 to 193 °C; and `Cc1cc(C(=O)NNC(=O)Cc2cccc(O)c2)ccc1O` [compound 75], with 207 to 208 °C.
For the molecule `CC(C)(C)c1cc(C(=O)NNC(=O)Cc2cccc(O)c2)ccc1O` [compound 76], the melting point was 154 to 157 °C.
